Experimental data as given in patent publication US9616062B2, “Cyclin dependent kinase inhibitors and methods of use” (priority 2009, dated 2017).

Tests used:
[1] = system: primary human renal proximal tubule epithelial cells; test: Cell cycle analysis (propidium iodide, flow cytometry); assay type: cell-based; settings: 16 hours
Experimental: (§1) Representative histograms of cell cycle analysis of Primary human renal proximal tubule epithelial cells treated with varying concentrations of PD0332991 for 16 hours. Cells were harvested, fixed, stained, and analyzed by flow cytometry. Data was fitted using Mod-Fit™ software from Verity (Verity Software House, Topsham, Me., United States of America).
as §1, with “Cell” for “Representative histograms of cell”, “America). Corresponding % of cells in G1 (diamonds), G2/M (squares) and S (triangles) are shown on the graph.” for “America).”
Primary normal human renal proximal epithelial cells (American Type Culture Collection (ATCC), Manassas, Va., United States of America) were cultured in renal epithelial cell basal media supplemented with renal epithelial cell growth kit according to the manufacturer's recommendations. […] For the γH2AX assay, cells were fixed, permeabilized, and stained with anti-γH2AX as per γH2AX Flow Kit (Millipore, Billerica, Mass., United States of America). γH2AX levels were assessed by flow cytometry. Cell proliferation was assessed by seeding 1×10^3 cells per well in a 96-well tissue culture plate in 100 μL of growth medium. […]

[2] = system: primary human renal proximal tubule epithelial cells; test: Cell proliferation, CellTiter-Glo, 72 hours; assay type: cell-based; settings: 0, 10 nM-3 μM, 72 hours post exposure
Experimental: FIG. 3: CDK4/6 inhibition blocks proliferation of primary human renal proximal tubule epithelial cells. Cells were treated with varying concentrations of PD0332991 for 72 hours. Following incubation, cell proliferation was quantified using CellTiter-Glo® (Promega, Madison, Wis., United States of America). Data represent the mean of four replicates (relative light units, RLU) +/−standard deviation.
Primary normal human renal proximal epithelial cells (American Type Culture Collection (ATCC), Manassas, Va., United States of America) were cultured in renal epithelial cell basal media supplemented with renal epithelial cell growth kit according to the manufacturer's recommendations. […] For the γH2AX assay, cells were fixed, permeabilized, and stained with anti-γH2AX as per γH2AX Flow Kit (Millipore, Billerica, Mass., United States of America). γH2AX levels were assessed by flow cytometry. Cell proliferation was assessed by seeding 1×10^3 cells per well in a 96-well tissue culture plate in 100 μL of growth medium. […] At the end of the recovery period, cell number was quantified using CellTiter-Glo® (Promega, Fitchburg, Wis., United States of America) or WST-1 reagent (TaKaRa Bio USA, Madison, Wis., United States of America). […] 100 μL of TOXILIGHT™ reagent is added and incubated for 5 minutes and read in a luminometer at 1 second/well. […]

[3] = system: mice treated with cisplatin; assay type: in vivo, mouse; settings: single dose PD0332991 150 mg/kg oral gavage with cisplatin 15 mg/kg IP; 72 hours post treatment
Experimental: FIG. 7: CDK4/6 inhibition protects kidney function in mice treated with cisplatin. Cohorts of mice were treated with cisplatin (10 mg/kg IP) alone (squares), PD0332991 (150 mg/kg PO) alone (diamonds) or immediately prior to cisplatin (10 mg/kg) (triangles). Kidney function was measured at day 7 by quantification of blood urea nitrogen (BUN) in mg/dL and serum creatinine (Serum Cr) in mg/dL. Data represents the mean of 6 animals per cohort +/−standard error of the mean.
To determine if CDK4/6 inhibition around the time of DNA damage would protect renal function, mice were treated with cisplatin, a known causative agent of renal tubular damage in humans. Mice were treated with PD0332991 150 mg/kg or vehicle control by oral gavage and then received a single dose of cisplatin 15 mg/kg by IP injection. 72 hours post treatment mice were euthanized and blood was collected by cardiac puncture for BUN (blood urea nitrogen) and serum creatinine (SrCr) analysis. Serum BUN and SrCr are common markers of renal function and serum levels quickly elevated when kidney function has been acutely compromised.

[4] = system: murine splenic B and T cells; test: Splenic lymphocyte proliferation in mice (Ki67 or BrdU staining); assay type: in vivo, mouse; settings: 24 hours treatment, unstimulated mice
Experimental: Animals were treated with CDK4/6 inhibitor (PD0332991, open bars) or vehicle (shaded bars) for 24 hours and euthanized. Splenocytes were isolated and stained for B and T cell markers. After gating on appropriate populations, Ki67 staining was performed as an indicator of proliferation and S-phase. Error bars show +/−SEM.
FIG. 22: CDK4/6 inhibitors block B-cell proliferation. Animals were treated with CDK4/6 inhibitor (150 mg/kg by daily oral gavage) or vehicle for 4 days, and BrdU in the drinking water for 3 days. After BrdU treatment, animals were euthanized. Splenocytes were isolated and stained for B cell markers. After gating on appropriate populations, BrdU staining was performed as an indicator of proliferation.
Cohorts of wild type mice were treated with vehicle or a CDK4/6 inhibitor as in FIG. 11. […] Unstimulated mice were treated for 24 hours with PD0332991 and homeostatic B cell proliferation measured by Ki67 staining after appropriate sorting. Similar results were obtained using BrdU incorporation to measure splenic B cell proliferation. Similar experiments were undertaken in human cells with B cell receptor stimulation as described in FIG. 12.

CC(=O)c1c(C)c2cnc(Nc3ccc(N4CCNCC4)cn3)nc2n(C2CCCC2)c1=O [PD0332991, 6-acetyl-8-cyclopentyl-5-methyl-2-(5-piperazin-1-yl-pyridin-2-ylamino)-8H-pyrido-[2,3-d]-pyrimidin-7-one]
cell cycle arrest (G0/G1, G2/M, S fractions) ([1]; 0, 10 nM-1 uM): induces a G1 arrest
cytotoxicity during G1 arrest ([1]; varying concentrations): without evidence of cytotoxicity
inhibition of cell proliferation vs DMSO control [2]: clear dose dependent inhibition of cell proliferation
protection of renal function (BUN and SrCr) [3]: abrogate the cisplatin-induced nephrotoxicity
splenocyte B and T cell proliferation (Ki67 staining) [4]: blocks T and B cell proliferation
